According to US20160207930A1 (LEO PHARMA A/S, priority 2013, published 2016):

Tests used:
[1] = Hepatic intrinsic clearance following incubation in human liver microsomes; type: in vitro ADME; conditions: 0.5 μM test compound, NADPH, 0-30 min, scaled to g liver
Protocol: Hepatic Extraction Ratio from Hepatic Intrinsic Clearance Following Incubation in Human Liver Microsomes
The general procedure consists of an automated incubation system and LC-MS/MS analysis with human liver microsomes. Human liver microsomes are thawed rapidly in a waterbath at 37° C. and kept on ice until use. The human liver microsomes are diluted with 50 mM potassium phosphate buffer pH 7.4 to a protein concentration of 0.55 mg/mL. Test compounds and positive controls (Verapamil and Dextromethorphan, positive controls for CYP3A4 for CYP2D6 isoforms, respectively) are dissolved in methanol (or other appropriate solvent, if necessary) in order to obtain a 5 mM solution which is further diluted to the concentration of 50 μM. The stock solutions are prepared immediately before the test.
5 μL of 50 μM test compounds and controls are added to 445 μL-of the 0.55 mg/mL microsomes solution and the incubation mixture are pre-warmed at 37° C. for 5 minutes. The incubation reactions are initiated by adding 50 μL of pre-warmed NADPH regenerating system to the incubation mixtures. 50 μL-aliquots will be taken from the incubation mixtures at: 0, 3, 6, 9, 15 and 30 minutes and the reactions are stopped by adding 100 μL of ACN containing Rolipram, used as generic Internal Standard (IS). Samples are then diluted with 120 μL of Milli-Q water and centrifuged at 3000 rpm for 10 minutes, prior the LC-MS/MS analysis.
The integrated peak areas for test compounds at the selected time points are divided by the respective peak areas of the IS and the percent of parent remaining is calculated by normalizing the peak area ratio of parent to IS at 0 min. Observed rate constant (kobs) for parent degradation is calculated by determining the slope of the line of the graph of the natural log of percentage parent remaining versus time of incubation. From the rate of depletion (min−1) and volume of the incubation (mL), clearance is estimated. This is scaled for the protein in the incubation relative to that in the intact liver, for all species (mL/min/g liver).
Values for the Human in vitro Clint are expressed as mL/min/g liver.
Assuming a liver weight of 25.7 g/kg and a liver blood flow of 20.7 mL/min/kg, the hepatic extraction ratio, Eh, can be derived from the Human in vitro Clint:
E.g. a Human in vitro Clint of 2.4 mL/min/g liver corresponds to a hepatic extraction ratio of 75%.
Some compounds of the present invention were tested according to example 101.

[2] = target: T1, NK1 Receptor (Homo sapiens, UniProt P25103); assay: NK1 receptor mediated intracellular [Ca2+] mobilization in U251 MG cells using FLIPR; type: cell-based; conditions: antagonism of Substance P (EC80), Fluo-4, read-out: NK1R mediated intracellular [Ca^2+] mobilization IC 50
T1 construct: Measurement of NK1 Receptor Mediated Intracellular [Ca^2+]; Mobilization in U251 MG Cells Using FLIPR; endogenous in cells; host or cells: U251 MG cells
T1 sequence (P25103 whole entry): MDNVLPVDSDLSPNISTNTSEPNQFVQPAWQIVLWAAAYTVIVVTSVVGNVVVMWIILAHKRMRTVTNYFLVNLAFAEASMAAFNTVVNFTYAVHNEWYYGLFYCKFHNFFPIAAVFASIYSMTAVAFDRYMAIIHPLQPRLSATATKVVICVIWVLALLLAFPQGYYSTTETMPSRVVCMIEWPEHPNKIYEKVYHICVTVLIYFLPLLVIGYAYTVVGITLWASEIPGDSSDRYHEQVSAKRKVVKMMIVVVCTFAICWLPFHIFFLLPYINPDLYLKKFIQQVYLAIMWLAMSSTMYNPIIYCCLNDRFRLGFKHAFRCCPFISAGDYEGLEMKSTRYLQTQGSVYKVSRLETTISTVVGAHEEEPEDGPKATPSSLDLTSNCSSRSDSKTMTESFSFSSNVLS
Protocol: Measurement of NK1 Receptor Mediated Intracellular [Ca^2+] Mobilization in U251 MG Cells Using FLIPR
U251 MG cells were seeded into black walled clear-bottom 384-well plates (Greiner Bio-One GmbH, Frickenhausen, Germany) at a density of 15,000 cells/well in 50 μl culture medium and cultured overnight in a 37° C. 5% CO2 incubator. The cells were then loaded with the calcium sensitive dye Fluo-4 (Invitrogen) at 1 μM in buffer, containing 0.04% Pluronic F-127 (Sigma-Aldrich), and 2.5 mM probenecid (Sigma-Aldrich) for 60 min in a humidified atmosphere of 5% CO2. Thereafter, cells were washed three times in washing buffer containing 20 mM HEPES and 2.5 mM probenecid pH 7.3. Serial dilutions of test compounds in assay buffer containing 2% dimethyl sulfoxide (final concentration in the cell plate is 0.5% DMSO) and/or agonist were then automatically pipetted into each test well, and the peak fluorescence intensity was recorded (lex, 488 nm; lem, 540 nm) by the FLIPR instrument (Molecular Devices) for approximately 5 min. To measure antagonist potency, cell plates were first incubated with the test compound and intracellular fluorescence recorded for 5 minutes to check a potential agonist effect of the test compound. Cell plates were quickly removed from the FLIPR instrument and incubated for additional 10 minutes at 37° C. before being moved back to the FLIPR instrument for Substance P (EC80) addition. The response was measured as the peak relative fluorescence change after agonist addition.
Compound relative %-effect was normalized to the maximal response evoked by 100 nM Aprepitant in presence of the EC80 of Substance P and the antagonist potency determined by non-linear regression using GraphPad Prism (version 5) or the four-parameter logistic model in XLfit (IDBS, Guilford, UK) for Microsoft Excel (Microsoft, Redmond, Wash.). The IC50 value is defined as the molar concentration of a test compound that produces a response midway between the fitted top and the fitted bottom. pIC50=−log IC50
Formula is listed as follows:
Fit (% Effect calculated)=(A+((B−A)/(1+((C/X)̂D)))) • A: bottom value • B: top value • C: test compound concentration • X: Relative IC50 • D: Hill slope coefficient
Ref: Sullivan E, Tucker E M, and Dale I L. Measurement of [Ca^2+] using the Fluorometric Imaging Plate Reader (FLIPR). Methods Mol Biol 114:125-133, 1999.
Compounds of the present invention were tested according to example 100.

Structure (SMILES)	Human in vitro Clint [1]	IC50 [2]
Cc1cc(F)ccc1[C@H]1[C@@H]2CCC(=O)N2CCN1C(=O)N(C)[C@H](C)c1cc(C(F)(F)F)cc(C(F)(F)F)c1 [Compound 20, (1S,8aS)—N—((R)-1-(3,5-bis(trifluoromethyl)phenyl)ethyl)-1-(4-fluoro-2-methylphenyl)-N-methyl-6-oxohexahydropyrrolo[1,2-a]pyrazine-2(1H)-carboxamide]	40 mL/min/g	0.137 nM
Cc1cc([C@@H](C)N(C)C(=O)N2CCN3C(=O)CC[C@H]3[C@@H]2c2ccc(F)cc2C)cc(C(F)(F)F)c1 [Compound 21, (1S,8aS)-1-(4-fluoro-2-methylphenyl)-N-methyl-N—((R)-1-(3-methyl-5-(trifluoromethyl)phenyl)ethyl)-6-oxohexahydropyrrolo[1,2-a]pyrazine-2(1H)-carboxamide]	36 mL/min/g	0.083 nM
COc1ccc(C2C3CCC(=O)N3CCN2C(=O)N(C)[C@H](C)c2cc(C(F)(F)F)cc(C(F)(F)F)c2)c(C)c1 (single isomer, unassigned) [Compound 19]	>200 mL/min/g	38.8 nM
Cc1cccc([C@H]2[C@@H]3CC(CCO)(CCO)C(=O)N3CCN2C(=O)N(C)[C@H](C)c2cc(C(F)(F)F)cc(C(F)(F)F)c2)c1C [Compound 39, (1S,8aS)—N—((R)-1-(3,5-bis(trifluoromethyl)phenyl)ethyl)-1-(2,3-dimethylphenyl)-7,7-bis(2-hydroxyethyl)-N-methyl-6-oxohexahydropyrrolo[1,2-a]pyrazine-2(1H)-carboxamide]	>200 mL/min/g	0.119 nM
Cc1cc(F)ccc1C1C2CC(CCO)(CCO)C(=O)N2CCN1C(=O)N(C)[C@H](C)c1cc(C(F)(F)F)cc(C(F)(F)F)c1 (single isomer, unassigned) [Compound 14]	>200 mL/min/g	0.094 nM
Cc1cc(F)ccc1[C@H]1[C@@H]2CCC(=O)N2CCN1C(=O)N(C)[C@H](C)c1cc(C(C)C)cc(C(F)(F)F)c1 [Compound 22, (1S,8aS)-1-(4-fluoro-2-methylphenyl)-N-(1-(3-isopropyl-5-(trifluoromethyl)phenyl)ethyl)-N-methyl-6-oxohexahydropyrrolo[1,2-a]pyrazine-2(1H)-carboxamide]	>200 mL/min/g	0.197 nM
Cc1cc(F)ccc1C1C2CC(CCO)(CCO)C(=O)N2CCN1C(=O)N(C)[C@H](C)c1cc(Cl)cc(C(F)(F)F)c1 (single isomer, unassigned) [Compound 11]	>200 mL/min/g	0.613 nM
Cc1ccc(C2C3CCC(=O)N3CCN2C(=O)N(C)[C@H](C)c2cc(C(F)(F)F)cc(C(F)(F)F)c2)c(C)c1 (single isomer, unassigned) [Compound 1]	>200 mL/min/g	0.154 nM

Next, values leading:

Human in vitro Clint [1]	IC50 [2]	Structure (SMILES)
>200 mL/min/g	59 nM	CCc1cc([C@@H](C)N(C)C(=O)N2CCN3C(=O)CC[C@H]3[C@@H]2c2c[nH]nc2C)cc(C(F)(F)F)c1 [Compound 61, (1S,8aS)—N—((R)-1-(3-ethyl-5-(trifluoromethyl)phenyl)ethyl)-N-methyl-1-(3-methyl-1H-pyrazol-4-yl)-6-oxohexahydropyrrolo[1,2-a]pyrazine-2(1H)-carboxamide]
>200 mL/min/g	1.58 nM	Cc1cc([C@@H](C)N(C)C(=O)N2CCN3C(=O)CC[C@H]3[C@@H]2c2ccsc2C)cc(C(F)(F)F)c1 [Compound 55, (1S,8aS)—N-methyl-N—((R)-1-(3-methyl-5-(trifluoromethyl)phenyl)ethyl)-1-(2-methylthiophen-3-yl)-6-oxohexahydropyrrolo[1,2-a]pyrazine-2(1H)-carboxamide]
>200 mL/min/g	2.57 nM	C[C@H](c1cc(C(F)(F)F)cc(C(F)(F)F)c1)N(C)C(=O)N1CCN2C(=O)CC[C@H]2[C@@H]1c1cccc2c1CCC2 [Compound 79, (1S,8aS)—N—((R)-1-(3,5-bis(trifluoromethyl)phenyl)ethyl)-1-(2,3-dihydro-1H-inden-4-yl)-N-methyl-6-oxohexahydropyrrolo[1,2-a]pyrazine-2(1H)-carboxamide]
>200 mL/min/g	0.52 nM	COc1cccc([C@H]2[C@@H]3CCC(=O)N3CCN2C(=O)N(C)[C@H](C)c2cc(C(F)(F)F)cc(C(F)(F)F)c2)c1C [Compound 77, (1S,8aS)—N—((R)-1-(3,5-bis(trifluoromethyl)phenyl)ethyl)-1-(3-methoxy-2-methylphenyl)-N-methyl-6-oxohexahydropyrrolo[1,2-a]pyrazine-2(1H)-carboxamide]
>200 mL/min/g	11 nM	CCc1ccccc1[C@H]1[C@@H]2CCC(=O)N2CCN1C(=O)N(C)[C@H](C)c1cc(C(F)(F)F)cc(C(F)(F)F)c1 (single isomer, unassigned) [Compound 69]
<10 mL/min/g	0.167 nM	Cc1cnccc1[C@H]1[C@@H]2CCC(=O)N2CCN1C(=O)N(C)[C@H](C)c1cc(C(F)(F)F)cc(C(F)(F)F)c1 [Compound 46, (1S,8aS)—N—((R)-1-(3,5-bis(trifluoromethyl)phenyl)ethyl)-N-methyl-1-(3-methylpyridin-4-yl)-6-oxohexahydropyrrolo[1,2-a]pyrazine-2(1H)-carboxamide]
>200 mL/min/g	0.11 nM	C[C@H](c1cc(C(F)(F)F)cc(C(F)(F)F)c1)N(C)C(=O)N1CCN2C(=O)CC[C@H]2[C@@H]1c1ccccc1CO [Compound 74, (1S,8aS)—N—((R)-1-(3,5-bis(trifluoromethyl)phenyl)ethyl)-1-(2-(hydroxymethyl)phenyl)-N-methyl-6-oxohexahydropyrrolo[1,2-a]pyrazine-2(1H)-carboxamide]
>200 mL/min/g	100 nM	Cc1cccnc1[C@@H]1[C@@H]2CCC(=O)N2CCN1C(=O)N(C)[C@H](C)c1cc(C(F)(F)F)cc(C(F)(F)F)c1 [Compound 44, (1S,8aS)—N—((R)-1-(3,5-bis(trifluoromethyl)phenyl)ethyl)-N-methyl-1-(3-methylpyridin-2-yl)-6-oxo-hexahydropyrrolo[1,2-a]pyrazine-2(1H)-carboxamide]
>200 mL/min/g	0.94 nM	CCc1cc([C@@H](C)N(C)C(=O)N2CCN3C(=O)CC[C@H]3[C@@H]2c2ccccc2CC)cc(C(F)(F)F)c1 (single isomer, unassigned) [Compound 70]
>200 mL/min/g	0.111 nM	CCc1cc([C@@H](C)N(C)C(=O)N2CCN3C(=O)CC[C@H]3[C@@H]2c2cccc(C)c2C)cc(C(F)(F)F)c1 [Compound 41, (1S,8aS)-1-(2,3-dimethylphenyl)-N—((R)-1-(3-ethyl-5-(trifluoromethyl)phenyl)ethyl)-N-methyl-6-oxo-hexahydropyrrolo[1,2-a]pyrazine-2(1H)-carboxamide]
